Assay results as given in patent US10688142B2, “Methods of treatment using a lipid extract of Passiflora seeds concentrated in its unsaponifiable fraction” (Laboratoires Expanscience, priority 2013, dated 2020).
Marks after values point to notes of the source that are not given here.

What was measured:
Format in all cases: cell-based
elastin = assay: Expression of dermal matrix components in normal human fibroblasts, real-time quantitative RT-PCR; conditions: TGFβ1 at 5 ng/ml, 24 hours
Experimental: (§1) Normal human dermal fibroblasts were incubated for 24 hours in 1 FCS culture medium in the presence of 0.005% and 0.05% Passiflora concentrate or TGFβ1 at 5 ng/ml (standard). After incubation, the total RNAs were extracted, assayed and retro-transcribed. The gene expression of collagen I and elastin were analysed by real-time quantitative RT-PCR.

collagen I = assay: as above; conditions: TGFβ1 at 5 ng/ml, 24 hours
Experimental: as §1

human mature adipocytes = assay: Lipolysis: release of glycerol by encapsulated mature adipocytes; conditions: 10 μM forskoline, 4 hours
Experimental: Human white adipose tissue carries out a fundamental metabolic function by providing the other tissues in the body with energy molecules in the form of fatty acids released by the adipocyte lipolysis process: adipocytes mobilise energy reserves by hydrolysing stored triglycerides to fatty acids and glycerol; the fatty acids thus released into the bloodstream can be used by other tissues for energy purposes. The effect of the Passiflora concentrate on adipocyte lipolysis was evaluated by assay of glycerol released during hydrolysis of the triglycerides stored in human mature adipocytes cultured in 3 dimensions.
Mature adipocytes, derived from biopsies of subcutaneous adipose tissue taken from five donors (normal-weight or overweight) were isolated and encapsulated in peptide gel allowing their survival and biological functionality in culture. The encapsulated mature adipocytes were incubated in the presence of 0.001% or 0.005% Passiflora concentrate, or 10 μM forskoline (standard) for 4 hours.
After incubation, the released glycerol was assayed in the culture medium using an assay kit (Randox), the values obtained were normalised with the amount of DNA evaluated with a kit (Invitrogen).

| Compound | Elastin gene expression, percentage increase relative to non-treated control (elastin) | Elastin (Relative Quantity) (elastin; control = 1.00) | Collagen I gene expression, percentage increase relative to non-treated control (collagen I) | Collagen I (Relative Quantity) (collagen I; control = 1.00) | Stimulation (%) of glycerol release (human mature adipocytes) | Release of glycerol (human mature adipocytes; mean of 5 donors, control 1.00) |
| --- | --- | --- | --- | --- | --- | --- |
| TGFβ1: TGFβ1 at 5 ng/ml (standard) in the dermal matrix gene expression test | +40% * | 1.40 | +30% ns^ | 1.30 |  |  |
| C=C[C@@]1(C)CC(=O)[C@]2(O)[C@@]3(C)[C@@H](O)CCC(C)(C)[C@@H]3[C@H](O)[C@H](OC(C)=O)[C@@]2(C)O1 [Forskoline, forskoline] |  |  |  |  | +660% ** | 6.60 Arbitrary unit |
